Reference: patent US12624057B2, “Bisphosphonate quinolone conjugates and uses thereof” (BIOVINC, LLC, priority 2016, dated 2026)
Entries after “also recorded” stand apart in the source; their conditions may differ.

Legend:
[1] = system: S. aureus ATCC6538 biofilms; assay: Survival of S. aureus biofilm on pretreated, rinsed HA discs; format: cell-based, Staphylococcus aureus; conditions: for times more active than ciprofloxacin alone in achieving complete bactericidal action: allowing for molecular mass; for ability to prevent biofilm formation on pretreated HA (in words): pretreated HA discs; for concentration that inhibited all biofilm growth: pretreated, rinsed HA discs
Procedure: HA discs incubated in DMSO or phosphate buffer served as control samples. Next, discs were rinsed 3 times with sterile water. After rinsing, 2 mL of 0.5 MF of. S. aureus ATCC6538 were introduced to wells containing HA discs as a substrate for biofilm development and biofilms were formed as before.

[2] = system: biofilms of S. aureus strain ATCC-6538; assay: Preformed biofilms on HA discs, S. aureus; format: cell-based, Staphylococcus aureus; conditions: for bactericidal activity / reduction of CFUs against established biofilm (in words): HA as substrate
Procedure: Antimicrobial susceptibility testing of BP-ciprofloxacin against preformed biofilms of S. aureus strain ATCC-6538 and P. aeruginosa strain ATCC-15442: Strains cultured on appropriate agar plates (Columbia agar plate for S. aureus; MacConkey agar plate for P. aeruginosa) were transferred to liquid microbiological media and incubated for 24 h/37° C. under aerobic conditions. After incubation, strains were diluted to the density of 1 MF. The microbial dilutions were introduced to wells of 24-well plates containing HA discs as a substrate, or simply to polystyrene wells where the bottom surface of the wells served as the substrate for biofilm development. Strains were incubated at 37° C. for 4 hrs. Next, the microbe-containing solutions were removed from the wells. The surfaces, HA discs and polystyrene plates, were gently rinsed to leave adhered cells and to remove planktonic or loosely-bound microbes. Surfaces prepared in this manner were immersed in fresh TSB medium containing 0.24-125 mg/L of BP-ciprofloxacin conjugate. After 24 hrs of incubation at 37° C. the surfaces were rinsed using physiological saline solution and transferred to 1 mL of 0.5% saponin (Sigma-Aldrich, St Louis, MO). The surfaces were vortex-mixed vigorously for 1 minute to detach cells. Subsequently, all microbial suspensions were diluted 10 to 10^9 times. Each dilution ([…]) was cultured on the appropriate stable medium (MacConkey, Columbia for P. aeruginosa and S. aureus, respectively) and incubated at 37-C for 24 hours. After this time, the microbial colonies were counted and the number of cells forming biofilm was assessed. Results were presented as the mean number of CFU per square millimeter surface±standard error of the mean. To estimate the exact surface area of HA discs, x-ray tomographic analysis was applied. For estimation of the area of test plate bottoms, the equation for circle area: πr2 was applied.
Antimicrobial susceptibility testing of 6 against preformed biofilms of S. aureus strain ATCC-6538 and P. aeruginosa strain ATCC-15442: Strains cultured on appropriate agar plates (Columbia agar plate for S. aureus; MacConkey agar plate for P. aeruginosa) were transferred to liquid microbiological media and incubated for 24 hrs/37° C. under aerobic conditions. After incubation, strains were diluted to the density of 1 MF. The microbial dilutions were introduced to wells of 24-well plates containing HA discs as a substrate, or simply to polystyrene wells where the bottom surface of the wells served as the substrate for biofilm development. Strains were incubated at 37° C. for 4 hrs. Next, the microbe-containing solutions were removed from the wells. The surfaces, HA discs and polystyrene plates, were gently rinsed to leave adhered cells and to remove planktonic or loosely-bound microbes. […] After 24 hrs of incubation at 37° C. the surfaces were rinsed using physiological saline solution and transferred to 1 mL of 0.5% saponin (Sigma-Aldrich, St Louis, MO). The surfaces were vortex-mixed vigorously for 1 minute to detach cells. Subsequently, all microbial suspensions were diluted 10-1 to 10-9 times. Each dilution ([…]) was cultured on the appropriate stable medium (MacConkey, Columbia for P. aeruginosa and S. aureus, respectively) and incubated at 37° C. for 24 hrs. After this time, the microbial colonies were counted and the number of cells forming biofilm was assessed. Results were presented as the mean number of CFU per square millimeter surface±standard error of the mean. To calculate the surface area of HA discs, x-ray tomographic analysis was applied. For estimation of the area of test plate bottoms, the equation for circle area: πr^2 was applied.

[3] = system: Aggregatibacter actinomycetemcomitans biofilms on titanium implants; assay: Rat jawbone peri-implant osteomyelitis model, first animal experiment; format: in vivo, Sprague-Dawley rats; conditions: for activity compared with ciprofloxacin in multiple doses (in words): conjugate 10 mg/kg single dose versus ciprofloxacin 30 mg/kg total; for efficacy (in words): single dose 0.1 and 1 mg/kg
Text: Since this BP-ciprofloxacin conjugate is novel and has not been tested in vivo, we performed an initial safety and efficacy study in an animal model of peri-implant osteomyelitis. This model is a unique in-house jawbone peri-implant osteomyelitis model that was developed specifically for translational value to study biofilm-mediated disease and host response in vivo (Freire, et al, Development of animal model for Aggregatibacter actinomycetemcomitans biofilm-mediated oral osteolytic infection: a preliminary study. J Periodontol 2011; 82:778-89). […] After biofilms are established on the implants in vitro, they are surgically transferred to the jawbone of each rat. Animals are anesthetized, the cheeks are retracted and a transmucosal osteotomy is performed so implants can be manually inserted into the osteotomy and secured. Two biofilm-inoculated implants are placed in each rat (n=12 rats and 24 implants) in the palatal bone bilaterally.
To determine appropriate dosing concentrations, we calculated approximate initial doses for the conjugate based on previous studies and pharmacokinetic data using similar target and release strategies and also rodents (Houghton, et al., Linking bisphosphonates to the free amino groups in fluoroquinolones: preparation of osteotropic prodrugs for the prevention of osteomyelitis. J Med Chem 2008; 51:6955-69; Morioka, et al., Design, synthesis, and biological evaluation of novel estradiol-bisphosphonate conjugates as bone-specific estrogens. Bioorg Med Chem 2010; 18:1143-8). We expected that increasing doses of 0.1, 1 and 10 mg/kg BP-ciprofloxacin molar equivalents will allow us to determine antimicrobial activity in 2 test animals per group based on sample size estimations and previous experience with the animal model (Freire, et al, Development of animal model for Aggregatibacter actinomycetemcomitans biofilm-mediated oral osteolytic infection: a preliminary study. J Periodontol 2011; 82:778-89). Animals were dosed via intraperitoneal injection under general anesthesia, and all compounds were constituted in sterile physiological injectable saline at appropriate pH. One week after pharmacotherapy, all animals were sacrificed and resection of peri-implant tissues was performed, and tissues were immediately homogenized and processed for quantitative assessment of microbial load. Animals were monitored throughout the study period for local or systemic adverse effects of pharmacotherapy.
This animal model is an in-house jawbone peri-implant osteomyelitis model designed specifically to study biofilm-mediated disease and host response in vivo (Freire, et al, Development of animal model for Aggregatibacter actinomycetemcomitans biofilm-mediated oral osteolytic infection: a preliminary study. J Periodontol 2011; 82:778-89). […] After biofilms were established on the implants in vitro, they were surgically transferred to the jawbone of each rat. For surgery, animals were anesthetized with 4% isoflurane inhalant initially followed by intraperitoneal injection of ketamine (80-90 mg/kg) plus xylazine (5-10 mg/kg). Then local anesthesia was given via infiltration injection of bupivicaine 0.25% at the surgical site. Buprenorphine sustained release (1.0-1.2 mg/kg) was then given subcutaneously as preemptive analgesia before making initial incisions. Once anesthetized, the buccal mucosa of each rat was retracted and a transmucosal osteotomy was performed with a pilot drill into the alveolar ridge in the natural diastema of the anterior palate. Implants were then manually inserted into the osteotomy and secured into the bone until the platform is at mucosal level.

[4] = 24 hrs of growth (Examples 5, 6)
[5] = HA discs as substrate (Example 1)
[6] = HA discs as substrate (Example 5)
[7] = conjugate, single dose 10 mg/kg intraperitoneal
[8] = ciprofloxacin, 10 mg/kg 3×/week (30 mg/kg total)

Question: What does the source list for `O=C(O)c1cn(C2CC2)c2cc(N3CCN(C(=O)Oc4ccc(CC(P(=O)(O)O)P(=O)(O)O)cc4)CC3)c(F)cc2c1=O` [Compound 6, 1-cyclopropyl-7-(4-((4-(2,2-diphosphonoethyl)phenoxy)carbonyl)piperazin-1-yl)-6-fluoro-4-oxo-1,4-dihydroquinoline-3-carboxylic acid]?
Answer: times more active than ciprofloxacin alone in achieving complete bactericidal action [1]: 20; times more active than ciprofloxacin alone in achieving complete bactericidal action ([1]; listed as BP-ciprofloxacin): 20; ability to prevent biofilm formation on pretreated HA (in words) [1]: superior antimicrobial activity; ability to prevent biofilm formation on pretreated HA (in words) ([1]; listed as BCC): inhibited; concentration that inhibited all biofilm growth ([1]; 24 hrs of growth (Example 1)): 10 µg/mL; concentration that inhibited all biofilm growth [1, 4]: 10 µg/mL; bactericidal activity / reduction of CFUs against established biofilm (in words) [2]: statistically significant (p<0.05, Kruskal-Wallis test) bactericidal activity; bactericidal activity / reduction of CFUs against established biofilm (in words) ([2]; listed as BP-ciprofloxacin): statistically significant bactericidal activity; bactericidal activity / reduction of CFUs against established biofilm (in words) ([2]; listed as conjugate): statistically significant bactericidal activity and reduction of colony forming units; MBIC50 [2, 5]: 8 µg/mL; MBIC90 [2, 5]: 50 µg/mL; MBIC50 [2, 6]: 16 µg/mL; MBIC90 [2, 6]: 100 µg/mL; greater bactericidal activity than multiple dosing of ciprofloxacin ([3]; conjugate 10 mg/kg single dose): ~1 log; activity compared with ciprofloxacin in multiple doses (in words) [3]: nearly an order of magnitude greater activity than ciprofloxacin alone; activity compared with ciprofloxacin in multiple doses (in words) ([3]; listed as BCC): an order of magnitude greater activity than the parent antibiotic ciprofloxacin alone; also recorded: approximately as effective as ciprofloxacin given at 30 mg/kg total dose; activity compared with ciprofloxacin in multiple doses (in words) ([3]; listed as BP-ciprofloxacin): more than an order of magnitude greater activity than ciprofloxacin alone; also recorded: superior to multiple dosing of the parent antibiotic ciprofloxacin; bacterial killing / bactericidal activity [3, 7]: 99%; reduction of bacterial load versus negative control [3, 7]: 2 log; efficacy (in words) ([3]; conjugate): little effect; also recorded: no efficacy; also recorded: ineffective; efficacy (in words) ([3]; conjugate, listed as BP-ciprofloxacin): little effect; also recorded: not efficacious

Question: How did the “concentration that inhibited all biofilm growth” value ([1]; 24 hrs of growth (Example 1)) turn out when `O=C(O)c1cn(C2CC2)c2cc(N3CCNCC3)c(F)cc2c1=O` [ciprofloxacin, reference compound] was run?
Answer: The value was 100 µg/mL.

Question: And the “concentration that inhibited all biofilm growth” value [1, 4]?
Answer: The value was 100 µg/mL.

Question: And the “bactericidal activity / reduction of CFUs against established biofilm (in words)” value [2]?
Answer: Its value is “statistically significant bactericidal activity”.

Question: And the MBIC90 [2, 5]?
Answer: Its MBIC90 is 8 µg/mL.

Question: And the MBIC90 [2, 6]?
Answer: The MBIC90 was 8 µg/mL.

Question: What about the bacterial killing [3, 8] of the same compound?
Answer: The bacterial killing was 90%.

Question: And the “reduction of bacterial load” value [3, 8]?
Answer: The value was 1 log.
